The values that follow come from ChEMBL document CHEMBL3217697, “The discovery of a novel prototype small molecule TLR7 agonist for the treatment of hepatitis C virus infection” (Medchemcomm, 2011).

Series [1] can be described thus: Octanol-neutral aqueous buffer partition coefficient, log D of the compound at pH 7.4. The format is physicochemical.
Series [2] is described as follows: Intrinsic clearance in human liver microsomes. The format is ADME. The settings on record: read-out: CLH.
Another series has as its system Hepatitis C virus. Briefly: Antiviral activity against Hepatitis C virus infected in human HuH7 cells. The settings on record: Hepacivirus hominis; Huh-7. The class given is functional, organism-based.
Series [3] in a line: Oral bioavailability in rat at 2 mg/kg administered as suspension. The format is ADME, organism-based. As to conditions: in vivo.
The nature of series [4]: Terminal half life in rat at 1 mg/kg, iv. The class given is ADME, organism-based. Set-up: dose 1 mg/kg, route intravenous. The settings on record: in vivo, read-out: beta t1/2 (converted).
Series [5] deals with Acetylcholinesterase (Homo sapiens) (UniProt P22303). The series can be described thus: Inhibition of human acetylcholinesterase at 10 uM relative to control.
Sequence of Acetylcholinesterase (Homo sapiens) (P22303 whole entry): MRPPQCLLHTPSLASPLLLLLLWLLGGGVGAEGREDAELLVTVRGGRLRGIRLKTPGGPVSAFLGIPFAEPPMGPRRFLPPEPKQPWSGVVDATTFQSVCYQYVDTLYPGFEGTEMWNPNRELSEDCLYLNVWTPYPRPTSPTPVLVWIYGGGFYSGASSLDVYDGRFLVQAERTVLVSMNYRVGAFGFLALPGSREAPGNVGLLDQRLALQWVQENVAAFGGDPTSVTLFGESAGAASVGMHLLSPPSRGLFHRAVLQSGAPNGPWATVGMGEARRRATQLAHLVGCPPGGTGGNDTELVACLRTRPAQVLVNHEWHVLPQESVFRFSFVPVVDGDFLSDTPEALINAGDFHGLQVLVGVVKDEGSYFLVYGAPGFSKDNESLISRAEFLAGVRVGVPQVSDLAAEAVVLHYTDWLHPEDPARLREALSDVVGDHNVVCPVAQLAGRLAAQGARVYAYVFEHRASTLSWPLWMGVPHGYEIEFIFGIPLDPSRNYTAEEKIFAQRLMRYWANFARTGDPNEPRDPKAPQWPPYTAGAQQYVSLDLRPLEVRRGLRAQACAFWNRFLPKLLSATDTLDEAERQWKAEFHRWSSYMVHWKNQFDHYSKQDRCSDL
The nature of series [6]: Oral bioavailability in rat at 2 mg/kg administered as solution. The format is ADME, organism-based. The settings on record: in vivo.
Series [7] can be described thus: Clearance in dog at 0.1 mg/kg, iv. The format is ADME, organism-based, Canis lupus familiaris. Set-up: dose 0.1 mg/kg, route intravenous. As to conditions: in vivo.
The subject of a further series is Mus musculus. Briefly: Stimulation of IFN-alpha production in po dosed CD-1 mouse. The format is functional, organism-based.
Series [8] can be described thus: Clearance in rat at 1 mg/kg, iv. The class given is ADME, organism-based. Set-up: dose 1 mg/kg, route intravenous. As to conditions: in vivo.
Series [9] concerns the target T1, Adenosine receptor A1 (Homo sapiens) (UniProt P30542).
T1 sequence (whole entry): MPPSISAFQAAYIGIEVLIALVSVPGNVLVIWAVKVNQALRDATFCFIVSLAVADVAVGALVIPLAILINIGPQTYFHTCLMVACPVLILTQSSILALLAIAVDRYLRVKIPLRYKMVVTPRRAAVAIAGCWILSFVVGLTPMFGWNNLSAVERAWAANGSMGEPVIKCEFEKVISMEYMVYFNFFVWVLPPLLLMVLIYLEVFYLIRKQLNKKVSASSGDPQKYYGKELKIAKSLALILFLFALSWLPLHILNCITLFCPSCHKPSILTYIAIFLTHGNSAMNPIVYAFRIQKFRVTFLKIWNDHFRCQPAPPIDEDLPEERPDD
The series can be described thus: Inhibition of adenosine A1 receptor (unknown origin) at 10 uM relative to control.

Series [10] can be described thus: Volume of distribution at steady state in rat at 1 mg/kg, iv. The format is ADME, organism-based. Set-up: dose 1 mg/kg, route intravenous. The settings on record: in vivo, read-out: Vdss.
A short description of series [11]: Volume of distribution at steady state in dog at 0.1 mg/kg, iv. The settings on record: in vivo, read-out: Vdss. On the set-up: dose 0.1 mg/kg, route intravenous. The class given is ADME, organism-based, Canis lupus familiaris.
Series [12] can be described thus: Oral bioavailability in rat at 2 mg/kg administered as nano suspension. The class given is ADME, organism-based. The settings on record: in vivo.
A short description of series [13]: Terminal half life in dog at 0.1 mg/kg, iv. The class given is ADME, organism-based, Canis lupus familiaris. On the set-up: dose 0.1 mg/kg, route intravenous. As to conditions: in vivo, read-out: beta t1/2 (converted).
Series [14] addresses Adenosine receptor A2a (Homo sapiens) (UniProt P29274). The series can be described thus: Inhibition of adenosine A2A receptor (unknown origin) at 10 uM relative to control.

Calls of active or inactive are those of the source. The calls are words filed in the database; no cut-off is given here.

Sequence of Adenosine receptor A2a (Homo sapiens) (P29274 whole entry): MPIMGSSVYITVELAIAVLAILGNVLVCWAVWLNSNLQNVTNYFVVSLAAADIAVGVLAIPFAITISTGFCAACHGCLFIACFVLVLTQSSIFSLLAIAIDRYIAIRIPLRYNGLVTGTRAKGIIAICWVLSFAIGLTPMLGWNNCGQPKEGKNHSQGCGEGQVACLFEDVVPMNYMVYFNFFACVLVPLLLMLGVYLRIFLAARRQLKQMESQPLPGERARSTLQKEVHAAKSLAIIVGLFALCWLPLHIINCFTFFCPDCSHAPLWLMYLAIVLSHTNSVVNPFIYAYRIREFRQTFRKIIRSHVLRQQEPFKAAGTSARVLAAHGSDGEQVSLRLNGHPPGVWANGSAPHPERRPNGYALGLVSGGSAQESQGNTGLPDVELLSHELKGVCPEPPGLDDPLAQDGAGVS

Consider `O=c1[nH]n2c(O)nc(C3CC3)cc2c1Cc1ccccc1`, for which the logD in [1] came to 1.7. Besides, in series [2], the microsomal CLint was less than 7 µL/min/mg. In addition, in the series with Hepatitis C virus, the result was inactive.

Compound `Cc1nc(N)c2c(n1)N(Cc1ccccc1)C(=O)C2` gave a logD in series [1] of 2. For the same compound, the microsomal CLint in series [2] was less than 7 µL/min/mg. In addition, the outcome in the series on Hepatitis C virus was inactive.

As to `CCCc1cc2c([nH]c(=O)n2Cc2ccccc2)c(N)n1`, in [1], the logD turned out to be 3.1. Moreover, in series [2], the microsomal CLint was 14 µL/min/mg.

For `Nc1nc(C(F)(F)F)cc2c1[nH]c(=O)n2Cc1ccccc1`, the bioavailability in series [3] is 69%; in series [6], 48%; in series [12] it was 71%. Moreover, the half-life is 1 h in [4] and 5.5 h in [13]. For the same compound, the inhibition in series [5] came out at 70%; in series [9], 29%; in series [14] it was 32%. Moreover, the microsomal CLint in series [2] was less than 7 µL/min/mg. Moreover, the clearance came to 6 mL/min/kg in series [7] and 33 mL/min/kg in [8]. In the series with Mus musculus, this compound yielded a concentration giving a half-maximal response (EC50) of 58 nM. Besides, the Vd is 2.7 L/kg in series [10] and 2.3 L/kg in [11].

Consider `COCCNc1nc(N)c2c(O)nn(Cc3ccccc3)c2n1`, for which the result in the series on Hepatitis C virus was inactive.

For the compound `Nc1cc(C2CC2)nc2c(Cc3ccccc3)c(=O)[nH]n12`, in series [1], the pH-dependent lipophilicity (logD) came to 1.6. Also, the microsomal CLint in [2] is less than 7 µL/min/mg. The result in the series on Hepatitis C virus was inactive.

Regarding `Cc1nc(N)c2[nH]c(=O)n(Cc3ccccc3)c2c1C`, the logD in series [1] was 2.6. Also, the microsomal CLint in [2] is less than 7 µL/min/mg. Besides, in the series with Hepatitis C virus, the outcome was inactive.

As to `Cc1nc(N)c2nc(O)n(Cc3ccccc3)c2n1`, the microsomal CLint in [2] is less than 7 µL/min/mg. For the same compound, the result in the series on Hepatitis C virus was inactive.

`Nc1nccc2c1[nH]c(=O)n2Cc1ccccc1` registered a logD in series [1] of 1.9. The microsomal CLint in series [2] was less than 7 µL/min/mg.

Take `Cc1cc(N)c2[nH]c(=O)n(Cc3ccccc3)c2n1`: in series [1], the logD came out at 2.3. The microsomal CLint in [2] is less than 7 µL/min/mg. In addition, the outcome in the series with Hepatitis C virus was inactive.

Consider `Cc1nc(N)c2sc(=O)n(Cc3ccccc3)c2n1`, for which, in the series on Hepatitis C virus, the result was inactive.

`Cc1nc(N)c2c(n1)N(Cc1ccccc1)C(=O)NC2`: the logD in series [1] was 1.6. Moreover, the microsomal CLint in series [2] was determined as 16 µL/min/mg. The result in the series with Hepatitis C virus was inactive.

The compound `CC(C)c1cc2c([nH]c(=O)n2Cc2ccccc2)c(N)n1` returned a pH-dependent lipophilicity (logD) in series [1] of 3.1. For the same compound, the microsomal CLint in series [2] is less than 7 µL/min/mg.

As for `O=c1[nH]c2cnc(C(F)(F)F)cc2n1Cc1ccccc1`, the logD in series [1] is 3.1. The microsomal CLint in [2] was less than 7 µL/min/mg.

Regarding `Cc1cc2c([nH]c(=O)n2Cc2ccccc2)c(N)n1`, the log distribution coefficient (logD) in [1] is 2.3. Moreover, the microsomal CLint in [2] was less than 7 µL/min/mg. The result in the series on Hepatitis C virus was inactive.
